Experiment [1] addresses T1, Sirt1 (Mus musculus, UniProt Q923E4).
T1 construct: from tissue; host or cells: whole living mice (WT and Chi3l1-/-); read-outs in lung/BAL and epididymal fat pads
T1 sequence (Q923E4 1-737): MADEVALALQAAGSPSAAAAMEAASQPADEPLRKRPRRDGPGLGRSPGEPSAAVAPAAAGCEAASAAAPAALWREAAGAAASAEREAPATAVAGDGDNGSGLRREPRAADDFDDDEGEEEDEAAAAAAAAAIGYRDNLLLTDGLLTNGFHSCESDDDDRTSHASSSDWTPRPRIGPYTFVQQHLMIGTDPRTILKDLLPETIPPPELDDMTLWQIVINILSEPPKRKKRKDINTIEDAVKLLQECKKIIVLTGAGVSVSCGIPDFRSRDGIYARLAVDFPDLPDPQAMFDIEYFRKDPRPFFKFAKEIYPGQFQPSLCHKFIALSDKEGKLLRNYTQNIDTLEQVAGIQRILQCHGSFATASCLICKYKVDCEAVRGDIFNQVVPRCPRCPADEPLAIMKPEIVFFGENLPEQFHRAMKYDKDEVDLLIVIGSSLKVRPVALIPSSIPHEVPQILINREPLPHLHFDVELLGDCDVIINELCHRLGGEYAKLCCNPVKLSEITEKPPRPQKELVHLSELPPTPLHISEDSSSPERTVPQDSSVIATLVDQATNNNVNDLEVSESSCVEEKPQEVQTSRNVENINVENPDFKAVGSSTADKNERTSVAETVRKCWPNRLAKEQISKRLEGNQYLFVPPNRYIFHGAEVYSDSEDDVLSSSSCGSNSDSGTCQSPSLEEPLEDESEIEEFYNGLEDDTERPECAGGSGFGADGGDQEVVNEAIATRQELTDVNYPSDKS
The experiment is described as follows: OVA aeroallergen-induced adaptive Th2 lung inflammation in mice treated with Sirt1 inhibitor. The experiment is classed as in vivo. To be noted: OVA sensitized and challenged, 0.4 mg/kg body weight per day i.p. one hour before every antigen challenge, vs DMSO vehicle. On the procedure: WT and Chit3l1^−/− mice were sensitized and challenged with OVA (ova+) or PBS (ova−) and were treated with Sirtinol or its vehicle (DMSO). Each animal received drug (0.4 mg/kg body weight per day) or vehicle one hour before every antigen challenge. FIGS. 6A-6B depict BAL total cell and eosinophil recovery, FIG. 6C depicts H&E photomicrographs of lungs from WT and Chi3l1^−/− mice treated with sirtinol or vehicle after OVA challenge, FIGS. 6D-6H depict the levels of mRNA encoding IL-4, IL-13, IL-17, IL-6 and TNF-α in the lungs of WT and Chi3l1^−/− mice treated with Sirtinol or DMSO. The noted values represent the mean±SEM of a minimum of 5 animals. (*p≦0.05, **p≦0.01). Mice were sensitized and challenged with ovalbumin (OVA) as previously described (20). One day after last challenge, the mice were sacrificed, bronchoalveolar lavage (BAL) was undertaken, and tissue responses were evaluated. Sirtinol, a Sirt1 inhibitor (Enzo Life Sciences) or vehicle control (0.05% dimethyl sulofoxide) were diluted with Phosphate Buffered Saline (PBS) and administered via an intraperitoneal (i.p.) route.

For experiment [2], the target named is T1, Sirt1. In words: Visceral (epididymal) fat accumulation in mice treated with Sirt1 inhibitor. To be noted: 0.4 mg/kg body weight per day i.p. twice per week for 5 weeks, vs DMSO vehicle. The experiment is classed as in vivo. On the procedure:
WT and Chi3l1^−/− mice were treated with Sirtinol or its vehicle (DMSO) and fat accumulation was assessed. Each animal received drug (0.4 mg/kg body weight per day) or vehicle twice per week for 5 weeks. FIG. 7A depicts a representative photograph illustrating abdominal fat accumulation, FIG. 7B depicts the weight of epididymal fat pads from WT and chi3l1^−/− mice. The noted values represent the mean±SEM of a minimum of 5 animals. (*P≦0.05, **p≦0.01). Sirtinol, a Sirt1 inhibitor (Enzo Life Sciences) or vehicle control (0.05% dimethyl sulofoxide) were diluted with Phosphate Buffered Saline (PBS) and administered via an intraperitoneal (i.p.) route.

Consider `CC(NC(=O)c1ccccc1/N=C/c1c(O)ccc2ccccc12)c1ccccc1` (stereo not shown) [Sirtinol], for which the “aeroallergen induced Th2 inflammation and Th2, IL-17 and IL-6 cytokine expression, and airway mucus” value on Sirt1 [1] (Chi3l1 null mice) was “restored”. Moreover, the “aeroallergen-induced Th2 inflammation and Th2, IL-17 and IL-6 cytokine production and mucus production in the lung” value on Sirt1 [1] (WT mice) is given as “diminished”. Besides, the “levels of visceral fat” value at Sirt1 [2] (Chi3l1 null mice) is reported as “restored”; at Sirt1 [2] (WT mice), “did not significantly alter”.

For the origin of these results see patent US20160166520A1, “METHODS AND COMPOSITIONS RELATING TO THE TREATMENT OF VISCERAL FAT AND ASTHMA” (YALE UNIVERSITY, priority 2014, published 2016).
